The subject of this assay is HUVECs. The assay is described as follows: Cytoskeleton immunofluorescence. The assay is classed as cell-based, human. Particulars: 0.5, 1 μM, 24 h. An excerpt:
The disruption was characterized by shortened microtubules with outer blebbing filled with tubulin and thicker and brighter actin fibers (stress fibers). Many rounded and retracted cells were also observed in HUVECs treated with 4. […] Taken together, 4 induced morphological alterations in endothelial cells are possibly the reason behind the disruption of the preexisting tubes of HUVECs cultured on Matrigel. […] Throughout the next steps, all of the reagents were removed by washing, flicking, and gently dabbing the slide against a tissue paper. The cells were then washed with PBS containing calcium and magnesium (Sigma, Cat# D1283), fixed with 10% formalin solution (Sigma, Cat# HT5014) for 15 min, and permeabilized with 0.2% (v/v) Triton X-100 for 5 min. Next, the cells were exposed to 1 h incubation with blocking buffer made of 10% (v/v) normal goat serum (Vector Laboratories, Cat# S-1000), 1% (w/v) bovine serum albumin (Sigma, Cat# A9418), and 0.3 M glycine in PBS-T (0.05% Tween-20 in PBS). The cells were then incubated with rabbit α-tubulin primary antibody (1:1000 in the blocking buffer, Abcam, Cat# ab52866) for 2 h at RT after three times washing with PBS-T, each for 5 min. […] Finally, the cytoskeleton was visualized at 63x, oil-based magnification using fluorescence, inverted microscope (Leica DMI6000B, Leica Microsystems). […]

In the case of `O=c1[nH]c(-c2cccc(F)c2)cc2cc(F)ccc12` [compound 4, 6-Fluoro-3-(3-fluorophenyl)isoquinolin-1(2H)-one], the “effect on cytoskeleton network (actin and microtubules)” value is reported as “marked disruption in the cytoskeleton network”.

The values are drawn from publication PMC9098178, “SAR of Novel 3-Arylisoquinolinones: meta-Substitution on the Aryl Ring Dramatically Enhances Antiproliferative Activity through Binding to Microtubules” (Journal of Medicinal Chemistry, 2022).
